As a reminder, the EC50 is the midpoint of the concentration-response curve.

Data set [1] deals with HT22 cells. Nature of the data set: HT22 oxytosis (glutamate-induced cell death) neuroprotection assay. The class given is cell-based, mouse. Conditions: 10 mM Glu. The method, then:
The HT22 murine hippocampal cell system was chosen as an initial phenotypic screen for neuroprotective efficacy (Andreux et al., 2013; Andreux et al., 2014; Ohlow et al., 2017; Schubert and Maher, 2012). HT22 cells exposed to high extracellular Glu ([…]) undergo oxytosis, a non-apoptotic programmed cell death involving glutathione (GSH) depletion followed by ROS accumulation, oxidative damage, and a cytotoxic signaling cascade (Tan et al., 2001). Glu blocks the −xC cystine antiporter, causing (Tan et al., 2001) cells to accumulate severe oxidative stress, mitochondrial depolarization, disrupted mitochondrial morphology, and Ca^2+ influx (Tan et al., 2001; Yang et al., 2011; Cheng et al., 2013—cellular events that may occur in neurological diseases, including epilepsy. Thus, the immortalized HT22 cell line is a well-established model of neuronal oxidative stress (Sagara and Schubert, 1998; Matsumoto et al., 1996; Albrecht et al., 2010; Ha and Park, 2006; van Leyen et al., 2005; Tobaben et al., 2011), and a verified model of neurodegeneration to screen for potential neuroprotective drugs (Albrecht et al., 2010; van Leyen et al., 2008; Lewerenz et al., 2009; Lewerenz et al., 2003).
Consistent with that work, most of the 2-amino compounds achieved protection of HT22 cells against glutamate-induced oxytosis in the nM to μM range. […] Neuroprotection based on relative cell viability compared to +Glu and −Glu control cells was measured.
The HT22 neuronal cell line is a subclone of HT4, derived from the mouse hippocampus (Morimoto and Koshland, 1990). […] The HT22 cells used in this study were kindly provided by Dr. David Schubert (The Salk Institute for Biological Studies, La Jolla, CA, USA). The cells were grown in Dulbecco's Modified Eagle's Medium (DMEM/high glucose) supplemented with 10% fetal bovine serum (Hyclone) and 5 mL of antibiotic-antimycotic (Amphotericin B, Penicillin, and Streptomycin; Invitrogen) at 37° C. in 5% CO2.
HT-22 cells were seeded onto 96-well plates at 2.5×10^3 cells per well in 75 μL of medium and maintained at 37° C. in 5% CO2 overnight prior to the initiation of experimental treatments. For glutamate toxicity testing, cells were subsequently treated with 25 μL of medium containing glutamate (monosodium glutamate, Sigma, 1 M stock concentration in media, to achieve a final concentration of 10 mM) plus compound (stock in DMSO) and maintained at 37° C. in 5% CO2 for 24 hr. CellTiter-Blue® (resazurin cell viability assay reagent) was then added to each well at a final concentration of 0.125 mg/mL. The mixture was allowed to incubate for 2-4 hr until sufficient color change occurred. Cell viability was measured as a function of resorufin fluorescence intensity using a Tecan M200 Pro spectrophotometer, 560 nm/590 nm (excitation/emission). Cell viability was calculated as a percentage compared with untreated controls. EC50s were determined using GraphPad Prism's “log(inhibitor) vs. normalized response-Variable slope” function. Morphology of HT22 cells following treatments was determined by phase-contrast microscopy.
(§1) Statistical analyses were performed with GraphPad Prism 6 software. For the in vitro HT22 oxytosis assay, dose-response data were fit using GraphPad Prism's log(inhibitor) vs normalized response-variable slope parameters to determine EC50 values and 95% confidence intervals. For the zebrafish locomotive anti-seizure activity data, multiple comparisons were made using a one-way analysis of variance (ANOVA) with a Kruskal-Wallis Test, followed by the Dunn's Method to determine significant differences between all pairs or between control and experimental groups using the Dunn Method for Joint Ranking. Differences were considered statistically significant when p<0.05. Data from zebrafish experiments are represented as scatter dot plots of individual measurements, with means±standard deviation indicated by bars.

Data set [2] concerns PTZ-induced seizure activity in zebrafish larvae. Nature of the data set: Zebrafish PTZ-induced seizure model. The class given is in vivo. To be noted: for minimal effective concentration / anti-seizure activity: 7 dpf larvae; for minimal effective concentration: 1 hr pre-treatment, 10 mM PTZ, read-out: Anti-seizure activity: lowest tested dose with significant difference vs PTZ-only group; for inhibition in vivo at 5 µM / inhibition in vivo at 10 µM: read-out: reduction of PTZ-induced locomotor activity; for anti-seizure activity: PTZ. The method, then:
The zebrafish PTZ-induced seizure model was used to determine the most promising compounds' in vivo efficacy. Zebrafish larvae (7 dpf) were treated with the compound for 1 hr prior to inducing seizures with PTZ. As established by previous larval zebrafish anti-seizure studies (Rahn et al., 2014; Hansen et al., 2004; Baraban et al., 2005), total distance traveled by each fish after seizure induction was measured and used as a proxy for seizure activity. Following collection of locomotor data, observation of a startle response and visual inspection for abnormal morphology confirmed that alterations in swim activity were not caused by compound toxicity.
We induced seizures in 7 dpf zebrafish larvae by the addition of […] PTZ as originally developed by Baraban et al., 2005. In a 48-well plate, one 7-dpf zebrafish was added per well. Larvae were dosed with each compound at a sub-lethal dose 1 hr prior to PTZ treatment. Two control rows were included with each experiment—tank water only control and PTZ only. Seizures were induced by adding PTZ to wells to yield a final concentration of 10 mM. After 5 min, the plate was transferred to the Daniovision instrument (Noldus Information Technology) and the chamber light was turned on. After 2 min, MediaRecorder (Noldus) was used to record video for 15 min. A small number of videos were acquired at 25 frames per second, but the majority of data were acquired at 60 frames per second. […] Ethovision XT software (Noldus) was used to track the fish movement from the video images in order to calculate the total distance traveled over 15 min. All experimental comparisons were made between animals from the same clutch.
as §1

Setting [3] is: Mus musculus, HT-22, 24 h, HT22 cells, 24 hr, 95% CI in parentheses.
[4] abbreviates: Mus musculus, HT-22, HT22 cells.
[5] abbreviates: HT22 cells, 24 hr, 95% CI in parentheses.

SMILES strings stand for the structures. Where two headings read alike, the source gives them in different places.

Regarding `CC#CCC(CO)NC1=CC(=O)c2ccccc2C1=O` (racemic) [Compound 18, Rac-2-((1-hydroxyhex-4-yn-2-yl)amino)naphthalene-1,4-dione], the EC50 in data set [1] (setting [3]) was 2170 nM; in data set [1] (setting [4]), above 2000 nM. Further, the minimal effective concentration in data set [2] (Danio rerio) was above 10 µM.
Turning to `C#CCC(C)NC1=CC(=O)c2ccccc2C1=O` (racemic) [Compound 20, Rac-2-(pent-4-yn-2-ylamino)naphthalene-1,4-dione], the EC50 was 3690 nM in data set [1] (setting [3]) and above 2000 nM in data set [1] (setting [4]). In addition, in data set [2] (Danio rerio), the minimal effective concentration is above 10 µM.
For the compound `C#CCC(NC1=CC(=O)c2ccccc2C1=O)c1ccccc1` (racemic) [Compound 21, Rac-2-((1-phenylbut-3-yn-1-yl)amino)naphthalene-1,4-dione], the EC50 in data set [1] (setting [3]) amounted to 6150 nM. In addition, the minimal effective concentration in data set [2] (Danio rerio) came out at 5 µM.
As for `C=CCC#CCNC1=CC(=O)c2ccccc2C1=O` [Compound 6, 2-(Hex-5-en-2-yn-1-ylamino)naphthalene-1,4-dione], in data set [1] (setting [3]), the EC50 came to 2640 nM. For the same compound, in data set [2] (Danio rerio), the minimal effective concentration is 10 µM, the inhibition in vivo at 5 µM is around 65% and the inhibition in vivo at 10 µM worked out at 85%.
On to `O=C1C=C(NCC#Cc2cccc(F)c2)C(=O)c2ccccc21` [Compound 9, 2-((3-(3-Fluorophenyl)prop-2-yn-1-yl)amino)naphthalene-1,4-dione], for which the EC50 in data set [1] (setting [3]) worked out at 216 nM.
For `COc1cccc(C#CCNC2=CC(=O)c3ccccc3C2=O)c1` [Compound 10, 2-((3-(3-Methoxyphenyl)prop-2-yn-1-yl)amino)naphthalene-1,4-dione], the EC50 in data set [1] (setting [3]) was found to be 215 nM. Also, the minimal effective concentration in data set [2] (Danio rerio) is above 20 µM.
As to `O=C1C=C(NCC#Cc2cccnc2)C(=O)c2ccccc21` [Compound 11, 2-((3-(Pyridin-3-yl)prop-2-yn-1-yl)amino)naphthalene-1,4-dione], in data set [1] (setting [3]), the EC50 was 290 nM.
`O=C1C=C(NCC#Cc2ccc(C(F)(F)F)cc2)C(=O)c2ccccc21` [Compound 12, 2-((3-(4-(Trifluoromethyl)phenyl)prop-2-yn-1-yl)amino)naphthalene-1,4-dione]: the values for the EC50 in data set [1] (setting [5]) and in data set [1] (setting [3]) were 566 nM and around 500 nM, respectively. For the same compound, the minimal effective concentration in data set [2] and in data set [2] (Danio rerio) was above 10 µM throughout.
For `O=C1C=C(NCC#Cc2cccc(C(F)(F)F)c2)C(=O)c2ccccc21` [Compound 13, 2-((3-(3-(Trifluoromethyl)phenyl)prop-2-yn-1-yl)amino)naphthalene-1,4-dione], the EC50 in data set [1] (setting [5]) was 584 nM; in data set [1] (setting [3]), around 500 nM. The minimal effective concentration in data set [2] and in data set [2] (Danio rerio) was above 10 µM in each case.
Take `CC(C)=CCC/C(C)=C/CNC1=CC(=O)c2ccccc2C1=O` [Compound 22, (E)-2-((3,7-Dimethylocta-2,6-dien-1-yl)amino)naphthalene-1,4-dione]: the figures for the EC50 in data set [1] (HT22 cells), in data set [1] (setting [3]) and in data set [1] (setting [4]) were around 9000 nM, 9220 nM and around 9200 nM, respectively. Also, the “anti-seizure activity” value in data set [2] is “activity at 20 and 40 μM that resulted from sedation”. In data set [2] (Danio rerio), the minimal effective concentration was found to be 20 µM.
As for `CC(C)=CCC/C(C)=C/CNC1=C(Br)C(=O)c2ccccc2C1=O` [Compound 23, (E)-2-Bromo-3-((3,7-dimethylocta-2,6-dien-1-yl)amino)naphthalene-1,4-dione], the EC50 in data set [1] (setting [3]) is 133 nM. The “anti-seizure activity” value in data set [2] was “ineffective”. The minimal effective concentration in data set [2] (Danio rerio) was above 10 µM.
In the case of `CC(C)=CCC/C(C)=C/CNC1=C(C)C(=O)c2ccccc2C1=O` [Compound 24, (E)-2-((3,7-Dimethylocta-2,6-dien-1-yl)amino)-3-methylnaphthalene-1,4-dione], the EC50 was 2740 nM in data set [1] (setting [3]) and around 2700 nM in data set [1] (setting [4]). For the same compound, in data set [2], the “anti-seizure activity” value was “ineffective”. In addition, the minimal effective concentration in data set [2] (Danio rerio) was above 10 µM.
For the compound `CCCCOC1=CC(=O)c2ccccc2C1=O` [Compound 26, 2-Butoxynaphthalene-1,4-dione], in data set [1] (Mus musculus, HT-22, HT22 cells, 24 hr, 95% CI in parentheses), the EC50 was 78 nM.
`O=C1C=C(OCc2ccccc2)C(=O)c2ccccc21` [Compound 27, 2-(Benzyloxy)naphthalene-1,4-dione]: the EC50 in data set [1] (setting [3]) is 168 nM.
On the same count and under the same terms, the value for `CC#CCOC1=CC(=O)c2ccccc2C1=O` [Compound 28, 2-(But-2-yn-1-yloxy)naphthalene-1,4-dione] was 168 nM.
Take `CCC#CCOC1=CC(=O)c2ccccc2C1=O` [Compound 29, 2-(Pent-2-yn-1-yloxy)naphthalene-1,4-dione]: the EC50 in data set [1] (setting [5]) was 307 nM. In addition, the EC50 in data set [1] (setting [3]) was around 300 nM. In addition, in data set [2] (Danio rerio), the minimal effective concentration is at most 5 µM, the inhibition in vivo at 5 µM was 60% and the inhibition in vivo at 10 µM amounted to 53%.
As to `CCCC#CCOC1=CC(=O)c2ccccc2C1=O` [Compound 30, 2-(Hex-2-yn-1-yloxy)naphthalene-1,4-dione], the EC50 in data set [1] (setting [3]) was 249 nM. Further, in data set [2] (Danio rerio), the minimal effective concentration turned out to be 5 µM, the inhibition in vivo at 5 µM was found to be 53% and the inhibition in vivo at 10 µM was determined as 68%.
As to `CCCCC#CCOC1=CC(=O)c2ccccc2C1=O` [Compound 31, 2-(Hept-2-yn-1-yloxy)naphthalene-1,4-dione], in data set [1] (setting [3]), the EC50 was determined as 76.1 nM. Moreover, in data set [2], the “anti-seizure activity” value was “reduced swim distance to control levels”. In data set [2] (Danio rerio), the minimal effective concentration amounted to 10 µM and the inhibition in vivo at 5 µM was 48%. Besides, the “toxic effects during PTZ-induced seizure experiments” value in data set [2] (lack of survival or behavioral impairments) is recorded as “higher-than-normal occurrences of toxic effects”.

(Values after patent US11771685B2, “Compounds for the treatment of neurological or mitochondrial diseases” (MUSC FOUNDATION FOR RESEARCH DEVELOPMENT, priority 2018, dated 2023).)
